Assay results taken from the NIST ThermoML archive (doi:10.1021/je300590v).

Conditions: Vibrating tube method

O=C=O [carbon dioxide]
Conditions | mass density [kg/m3]
273.15 K, 1001 kPa, Gas | 21.2
273.15 K, 2001 kPa, Gas | 45.7
273.15 K, 3001 kPa, Gas | 77.3
273.15 K, 3300 kPa, Gas | 89.9
273.15 K, 3500 kPa, Liquid | 928.1
273.15 K, 4001 kPa, Liquid | 932.4
273.15 K, 5001 kPa, Liquid | 940.7
273.15 K, 6000 kPa, Liquid | 948.2
273.15 K, 7000 kPa, Liquid | 955.3
273.15 K, 8003 kPa, Liquid | 961.9
273.15 K, 9001 kPa, Liquid | 968.1
273.15 K, 10002 kPa, Liquid | 974.1
273.15 K, 11003 kPa, Liquid | 979.7
273.15 K, 12000 kPa, Liquid | 985.1
273.15 K, 13004 kPa, Liquid | 990.1
273.15 K, 14002 kPa, Liquid | 995
273.15 K, 15001 kPa, Liquid | 999.7
273.15 K, 16002 kPa, Liquid | 1004.3
273.15 K, 17000 kPa, Liquid | 1008.6
273.15 K, 18001 kPa, Liquid | 1012.8
273.15 K, 19001 kPa, Liquid | 1017
273.15 K, 20000 kPa, Liquid | 1020.8
283.15 K, 1000 kPa, Gas | 20.4
283.15 K, 2001 kPa, Gas | 43.1
283.15 K, 3001 kPa, Gas | 70.9
283.15 K, 4000 kPa, Gas | 108.4
283.15 K, 4400 kPa, Gas | 130.1
283.15 K, 5001 kPa, Liquid | 869.1
283.15 K, 6003 kPa, Liquid | 882.2
283.15 K, 7000 kPa, Liquid | 893.3
283.15 K, 8001 kPa, Liquid | 903
283.15 K, 9001 kPa, Liquid | 912.2
283.15 K, 10001 kPa, Liquid | 920.4
283.15 K, 11001 kPa, Liquid | 928.2
283.15 K, 12000 kPa, Liquid | 935.5
283.15 K, 13001 kPa, Liquid | 942.2
283.15 K, 14001 kPa, Liquid | 948.3
283.15 K, 15000 kPa, Liquid | 954.3
283.15 K, 16001 kPa, Liquid | 960.1
283.15 K, 17001 kPa, Liquid | 965.5
283.15 K, 18002 kPa, Liquid | 970.8
283.15 K, 19001 kPa, Liquid | 975.7
283.15 K, 20000 kPa, Liquid | 980.4
293.15 K, 1011 kPa, Gas | 19.8
293.15 K, 2001 kPa, Gas | 41
293.15 K, 3001 kPa, Gas | 66.2
293.15 K, 4000 kPa, Gas | 97.3
293.15 K, 5000 kPa, Gas | 140.4
293.15 K, 5600 kPa, Gas | 182.2
293.15 K, 5800 kPa, Liquid | 774.1
293.15 K, 6001 kPa, Liquid | 783.3
293.15 K, 7003 kPa, Liquid | 809.1
293.15 K, 8001 kPa, Liquid | 827.5
293.15 K, 9002 kPa, Liquid | 843.2
293.15 K, 10001 kPa, Liquid | 856.1
293.15 K, 11001 kPa, Liquid | 867.7
293.15 K, 12000 kPa, Liquid | 877.9
293.15 K, 13000 kPa, Liquid | 887.3
293.15 K, 14000 kPa, Liquid | 895.9
293.15 K, 15003 kPa, Liquid | 904
293.15 K, 16003 kPa, Liquid | 911.5
293.15 K, 17001 kPa, Liquid | 918.6
293.15 K, 18002 kPa, Liquid | 925
293.15 K, 19002 kPa, Liquid | 931.2
293.15 K, 20000 kPa, Liquid | 937.1
